Entries after “also recorded” stand apart in the source; their conditions may differ.
Assays:
Solubility in water = type: physicochemical; details: phosphate salt
[1] = Safety and adverse event (AE) profile, Phase 2 trial of oral squalamine (ENT-01); type: in vivo, human
Method: (§1) Tolerability limits included diarrhea or vomiting.
(§2) In Stage 2, 34 patients were evaluated.

[2] = Preclinical studies of oral squalamine (ENT-01) in rats; type: in vivo; details: rat, oral dosing of radioactive ENT-01, portal blood concentrations
[3] = system: patients with PD and constipation; assay: Effect on bowel function (prokinetic response, stool diary indices), Phase 2 trial; type: in vivo, human; details: patients with baseline ≥1 CSBM/week
Method: Following successful screening, all subjects underwent a 14-day run-in period where the degree of constipation was assessed through a validated daily log (Zinsmeister et al. 2013) establishing baseline CSBMs/week. Subjects with an average of <3 CSBMs/week proceeded to dosing.
as §1, §2
The primary efficacy outcome variable was whether or not a subject was a “success” or “failure”. This is an endpoint based on subject diary entries for the “fixed dose” period prior to the endpoint assessment defined as average complete stool frequency increase by 1 or more over baseline, or 3 or more complete spontaneous stools/week. The subject was deemed a “success” if s/he met one or more of the criteria listed above, otherwise the subject was deemed a “failure”. The primary analysis was based on all subjects with a baseline assessment and an assessment at the end of the “fixed-dose” period and was a comparison of the proportion of successes with 0.10 (the null hypothesis corresponding to no treatment effect).

patients with PD [4] = assay: CNS symptoms in Stage 2 (UPDRS, MMSE, PDHQ, BDI-II); type: in vivo, human; details: during treatment; 5 patients with hallucinations and 1 with delusions at baseline
Description: Exploratory end-points, in addition to constipation, included for example, (i) depression assessed using the Beck Depression Inventory (BDI-II) (Steer et al. 2000) and Unified Parkinson's Disease Rating Scale (UPDRS); (ii) cognition assessed using the Mini Mental State Examination (MMSE) (Palsteia et al. 2018), Unified Parkinson's Disease Rating Scale (UPDRS), and Trail Making Test (TMT); (iii) sleep and REM-behavior disorder (RBD) using a daily sleep diary, I-Button Temperature Assessment, a REM sleep behavior disorder (RBD) questionnaire (RBDQ) (Stiasny-Kolster et al. 2007), and the UPDRS; (iv) hallucinations assessed using the PD hallucinations questionnaire (PDHQ) (Papapetropoulos et al. 2008), the UPDRS, and direct questioning; (v) fatigue using the Parkinson's Disease Fatigue Scale (PFS-16) and the UPDRS; (vi) motor functions using the UPDRS; and (vii) non-motor functions using the UPDRS.
(§3) Assessments were made at baseline and at the end of the fixed dose and washout periods. Circadian system status was evaluated by continuously monitoring wrist skin temperature (Thermochron iButton DS1921H; Maxim, Dallas) following published procedures (Sarabia et al. 2008).
An exploratory analysis was done with respect to the sleep data, the body temperature data, mood, fatigue, hallucinations, cognition and other motor and non-motor symptoms of PD. […]

patients with PD [5] = assay: Circadian rhythm of wrist skin temperature (I-Button); type: in vivo, human; details: fixed dose vs baseline, 12 evaluable patients
Method: (6) I-Button Temperature Assessment. The I-Button is a small, rugged self-sufficient system that measures temperature and records the results in a protected memory section. The Thermochron I-Button DS1921H (Maxim Integrated, Dallas, Tex.) was used for skin temperature measurement. I-Buttons were programmed to sample every 10 mins., and attached to a double-sided cotton sport wrist band using Velcro, with the sensor face of the I-Button placed over the inside of the wrist, on the radial artery of the dominant hand. Subjects removed and replaced the data logger when necessary (i.e., to have a bath or shower). […] From the collected data, the mesor, amplitude, acrophase (time of peak temperature), Rayleight test (an index of interdaily stability), mean waveforms are calculated.);
as §3
Circadian rhythm of skin temperature was evaluable in 12 patients (i.e., those who had recordings that extended from baseline through washout). Circadian system functionality was evaluated by continuously monitoring wrist skin temperature using a temperature sensor (Thermochron iButton DS1921H; Maxim, Dallas, Tex.) (Sarabia et al. 2008). […]

αS [6] = molecular target: T1, αS (Homo sapiens, UniProt P37840); details: in vitro; cited from earlier work
αS [7] = molecular target: T1, αS; details: in vitro; cited from earlier work; remark: listed apart in the source
C. elegans αS model = details: cited from earlier work; for formation of αS aggregates: C. elegans model of PD in vivo
[8] = following systemic administration, mice, into the duodenum through the biliary tract; cited from earlier work
[9] = system: gastrointestinal motility; details: prior studies; cited from earlier work
[10] = system: IPANs (intrinsic primary afferent neuron); details: perfusion through the lumen of isolated bowel segment from the PD mouse model; cited from earlier work
mouse models of PD = mouse models of PD (constipation due to overexpression of human αS); cited from earlier work
[11] = dilactate salt, single and repeat intravenous administration, alone or in combination; cited from earlier work
[12] = Stage 2, 34 dosed, unrelated to ENT-01

Question: With `CC(C)[C@@H](CC[C@@H](C)[C@H]1CC[C@H]2[C@@H]3[C@H](O)C[C@H]4C[C@@H](NCCCNCCCCN)CC[C@]4(C)[C@H]3CC[C@]12C)OS(=O)(=O)O` (single isomer, unassigned) [squalamine (ENT-01)] as the compound, how does the solubility in water (Solubility in water; neutral pH) read?
Answer: Its solubility in water is “weakly soluble in water”.

Question: And the dissolution in water (Solubility in water; pH<3.5 (the pH of gastric fluid))?
Answer: The dissolution in water was “readily dissolves”.

Question: And the “Blood in urine, Mild” value [1, 12]?
Answer: The value was 0 n.

Question: What about the “Loss of appetite, Mild” value [1, 12] of the same compound?
Answer: The value was 0 n.

Question: And the “Lower GI bleed, Severe” value ([1]; Stage 2, colonic diverticulosis, polyp, patient on aspirin, Plavix and naproxen, unrelated to ENT-01)?
Answer: Its value is 1 n.

Question: What about the “patients with worsening of hemorrhoids” value ([1]; both stages, 1/44 patients) of the same compound?
Answer: Its value is 2.2%.

Question: What about the “patients with worsening of acid reflux” value ([1]; both stages, 2/44 patients) of the same compound?
Answer: Its value is 4.5%.

Question: What about the patients with flatulence ([1]; both stages, 3/44 patients) of the same compound?
Answer: The patients with flatulence was 6.8%.

Question: What about the patients with vomiting ([1]; both stages, 3/44 patients) of the same compound?
Answer: The patients with vomiting was 6.8%.

Question: What about the patients with dizziness ([1]; both stages, 8/44 patients) of the same compound?
Answer: Its patients with dizziness is 18%.

Question: And the “patients with abdominal pain” value ([1]; both stages, 11/44 patients)?
Answer: The value was 32%.

Question: And the “absorption from the intestine” value [2]?
Answer: The value was “low”.

Question: What about the “mean dose required for a bowel (prokinetic) response” value [3] of the same compound?
Answer: Its value is 120 mg.

Question: And the “hallucinations and delusions improved or disappeared” value (patients with PD [4])?
Answer: Its value is 5 of 6.

Question: What about the “markers of circadian function (IS, RA, CFI, IV) of wrist skin temperature rhythm” value (patients with PD [5]) of the same compound?
Answer: Its value is “improved all markers of healthy circadian function”.

Question: What about the “displacement of αS from membranes” value (αS [6]) of the same compound?
Answer: The value was “displace αS from membranes”.

Question: What about the “formation of αS aggregates” value (αS [7]) of the same compound?
Answer: The value was “inhibit the formation of aggregates of αS”.

Question: And the “formation of αS aggregates” value (C. elegans αS model)?
Answer: The value was “inhibit the formation of aggregates of αS”.

Question: Which results are given for `CC(C)[C@@H](CC[C@@H](C)[C@H]1CC[C@H]2[C@@H]3[C@H](O)C[C@H]4C[C@@H](NCCCNCCCCN)CC[C@]4(C)[C@H]3CC[C@]12C)OS(=O)(=O)O` [squalamine]?
Answer: clearance and excretion [8]: cleared by the liver and excreted as the intact molecule; gastrointestinal motility after intravenous administration [9]: not associated with increased gastrointestinal motility; effect on IPANs [10]: excitation of IPANs; formation of αS aggregates (αS [7]): inhibits the formation of αS aggregates; effect on gastrointestinal motility (mouse models of PD): stimulates gastro-intestinal motility; also recorded: restores gastrointestinal motility; also recorded: reverse gastrointestinal dysmotility; well tolerated dose [11]: at least 300 mg/m^2; formation of αS aggregates (C. elegans αS model): inhibits the formation of αS aggregates; muscle paralysis / motor dysfunction (C. elegans αS model; C. elegans αS model): reverses motor dysfunction; also recorded: complete reversal of muscle paralysis
